{"source": "paper PMC12294558", "about": "“New 1,2,4-Triazole Derivatives with a N-Mannich Base Structure Based on a 4,6-Dimethylpyridine Scaffold as Anticancer Agents: Design, Synthesis, Biological Evaluation, and Molecular Modeling” (International Journal of Molecular Sciences, 2025)", "key": {"LoVo cells": {"test_system": "LoVo cells", "assay": "MTT viability assay, colorectal cancer cells LoVo", "type": "cell-based, human", "settings": "for SI, LoVo: CC50 CCD 841 CoTr / CC50 LoVo", "protocol": "(§1) The cytotoxic effects of ten newly synthesized N-Mannich bases were assessed on the normal human intestinal epithelium (CCD 841 CoTr) and cancer cell lines: gastric cancer (EPG) and four colorectal cancer lines (Caco-2, LoVo, LoVo/Dx, and HT-29). Cell viability was evaluated using the MTT assay in accordance with Annex C of ISO 10993-5 [33].\n(§2) The biological activity of the newly synthesized compounds was assessed in the context of anticancer activity. For this purpose, several gastrointestinal cancer lines were selected: gastric cancer (EPG 257, which belongs to the collection of the Laboratory of Cell Culture and Advanced Therapy at the University of Environmental and Life Sciences in Wrocław), and four colorectal cancer cell lines (LoVo, Caco-2, and HT-29) were obtained from the European Collection of Authenticated Cell Cultures (ECACC) and were delivered by Sigma-Aldrich, a certified distributor for the biobank. Additionally, LoVo cells were used to develop a doxorubicin-resistant subline, referred to as LoVo/Dx. Resistance was induced through gradual adaptation to increasing concentrations of doxorubicin, starting from 0.1 µg/mL and incrementally raised to 0.8 µg/mL. After reaching the maximum concentration, the cells were maintained in a medium containing 0.4 µg/mL doxorubicin for a period of three months to stabilize the resistant phenotype. […] The resulting LoVo/Dx subline, resistant to doxorubicin, was cultured in DMEM/F-12 medium and utilized in assays evaluating the effectiveness of novel compounds against multidrug-resistant cancer cells. […] The non-cancerous cell control was normal colonic epithelial cells (CCD 841 CoTr from American Type Culture Collection, (ATCC, Manassas, VA, USA)). Cell cultures were performed under standard conditions (5% CO2, 95% humidity, and 37 °C). Each cell line was cultured in the recommended medium: (1) HT-29 in McCoy’s 5a, (2) Caco-2 in Minimal Essential Medium (MEM, Biological Industries, Beit Haemek, Israel), (3) CCD 841 CoTr in Dulbecco’s Modified Eagle Medium (DMEM, Biological Industries, Beit Haemek, Israel), (4) LoVo in Dulbecco’s Modified Eagle Medium/F-12 (DMEM/F-12; Biological Industries, Beit Haemek, Israel), (5) LoVo/Dx in DMEM/F-12, and (6) EPG in DMEM. Culture media were supplemented with 10% fetal bovine serum (FBS, Sigma-Aldrich, Darmstadt, Germany) and antibiotics (penicillin and streptomycin; Sigma-Aldrich, Darmstadt, Germany). For assays, trypsinized (TrypLE solution, Thermo Fisher Scientific, Waltham, MA, USA) cells were seeded at appropriate densities of 10,000 cells per well for MTT and determination of apoptotic and necrotic cell numbers; 30,000 cells per well for the rhodamine accumulation assay; and 500,000 cells per well for ELISA tests.\n(§3) The cytotoxicity of the compounds and drugs used as controls was assessed using the MTT assay. The assay also included a DMSO control. After seeding and allowing the cells to adhere overnight, they were treated with the tested compounds and drugs for another 24 h. After this time, the supernatant was removed, and a 1 mg/mL MTT solution was added for 2 h in 5% CO2, 95% humidity, at 37 °C. The supernatant was then removed, and isopropanol was added to dissolve the purple crystals over 30 min by shaking. Absorbance was measured at 570 nm in a Multiskan GO microplate reader (Thermo Fisher Scientific; Waltham, MA, USA). All reagents used for the assays were purchased from Sigma-Aldrich, Darmstadt, Germany.\n(§4) Biological assays were performed in three independent replicates, each involving four samples. ELISA determinations were repeated three times."}, "LoVo/Dx cells": {"test_system": "LoVo/Dx cells", "assay": "MTT viability assay, doxorubicin-resistant LoVo/Dx", "type": "cell-based, human", "settings": "for SI, LoVo/Dx: CC50 CCD 841 CoTr / CC50 LoVo/Dx; for CC50: Homo sapiens, LoVo/DX, MTT, 24 h, read-out: CC50 ± SD, LoVo/Dx", "protocol": "as §1, §2, §3, §4"}, "[1]": {"assay": "MTT viability assay, normal colonic epithelial cells", "type": "cell-based, human", "settings": "human, CCD 841 CoTr normal colonic epithelial cells, Non-toxic = no toxicity in tested range 1–500 μM, read-out: CC50 ± SD, CCD 841 CoTr", "protocol": "as §1, §2, §3, §4"}, "[2]": {"molecular_target": "T1, P-glycoprotein (LoVo/Dx cells) (Homo sapiens, UniProt P08183)", "T1 construct": "intracellular accumulation of rhodamine 123 (a fluorescent P-gp substrate analog) in P-gp-expressing cell lines (HT-29, LoVo, and LoVo/Dx); endogenous in cells; host or cells: HT-29, LoVo (ECACC via Sigma-Aldrich); LoVo/Dx (doxorubicin-selected subline of LoVo)", "T1 sequence (P08183 whole entry)": "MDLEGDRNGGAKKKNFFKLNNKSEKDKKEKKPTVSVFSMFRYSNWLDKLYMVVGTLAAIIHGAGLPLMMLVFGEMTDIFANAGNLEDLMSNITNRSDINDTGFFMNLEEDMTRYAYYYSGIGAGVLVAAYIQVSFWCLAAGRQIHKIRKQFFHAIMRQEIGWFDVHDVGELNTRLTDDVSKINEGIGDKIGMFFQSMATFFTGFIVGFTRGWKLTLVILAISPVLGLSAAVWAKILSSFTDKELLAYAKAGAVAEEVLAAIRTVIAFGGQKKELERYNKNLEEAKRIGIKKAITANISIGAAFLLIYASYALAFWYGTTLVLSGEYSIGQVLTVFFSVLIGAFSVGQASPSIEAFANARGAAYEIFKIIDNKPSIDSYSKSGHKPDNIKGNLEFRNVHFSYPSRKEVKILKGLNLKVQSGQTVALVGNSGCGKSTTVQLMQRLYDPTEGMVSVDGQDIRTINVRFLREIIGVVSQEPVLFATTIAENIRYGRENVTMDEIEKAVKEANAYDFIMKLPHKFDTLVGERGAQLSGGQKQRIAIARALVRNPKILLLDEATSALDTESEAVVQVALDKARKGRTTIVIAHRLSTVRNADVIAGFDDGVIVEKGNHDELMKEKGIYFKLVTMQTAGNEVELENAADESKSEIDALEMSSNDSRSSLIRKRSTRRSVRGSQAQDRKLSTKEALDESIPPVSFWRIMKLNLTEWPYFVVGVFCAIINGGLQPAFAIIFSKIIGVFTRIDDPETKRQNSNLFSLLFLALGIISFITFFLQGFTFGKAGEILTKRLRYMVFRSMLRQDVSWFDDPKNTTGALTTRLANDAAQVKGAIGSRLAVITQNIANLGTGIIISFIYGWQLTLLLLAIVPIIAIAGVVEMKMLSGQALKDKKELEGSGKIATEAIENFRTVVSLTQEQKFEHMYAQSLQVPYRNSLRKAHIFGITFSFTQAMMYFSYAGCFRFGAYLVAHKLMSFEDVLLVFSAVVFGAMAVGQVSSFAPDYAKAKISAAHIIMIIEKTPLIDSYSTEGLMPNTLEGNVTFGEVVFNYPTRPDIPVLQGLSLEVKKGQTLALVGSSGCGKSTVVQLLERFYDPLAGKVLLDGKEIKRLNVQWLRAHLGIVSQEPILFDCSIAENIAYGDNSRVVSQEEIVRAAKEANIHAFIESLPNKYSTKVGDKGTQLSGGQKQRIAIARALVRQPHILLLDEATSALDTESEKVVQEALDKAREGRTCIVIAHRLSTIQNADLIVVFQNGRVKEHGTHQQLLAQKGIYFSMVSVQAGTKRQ", "assay": "Rhodamine-123 accumulation assay in LoVo/Dx", "type": "cell-based", "settings": "50 µM, 24 h; versus untreated control", "from_the_text": "(§5) This test measured the intracellular accumulation of rhodamine 123 (a fluorescent P-gp substrate analog) in P-gp-expressing cell lines (HT-29, LoVo, and LoVo/Dx). Following accumulation and efflux phases, the fluorescence of rhodamine 123 (Rh-123) was quantified using spectrofluorimetry. The results are illustrated in Figure 3. Verapamil, a calcium channel blocker, served as a positive control for P-gp inhibition due to its well-established ability to inhibit P-gp activity. Verapamil binds to P-gp, inhibiting its function, which increases the intracellular concentration of chemotherapeutic drugs and other P-gp substrates.\n(§6) The activity was measured for cells treated with a 50 µM concentration of the compounds and drugs in the recommended media for each cell line (without FBS) in a volume of 100 µL for 24 h. In this test, verapamil served as the control. After the incubation period, a 10 mM Rhodamine-123 (Rh-123) solution was prepared in a 1:1 DMSO mixture. […] Fluorescence was measured at 485 nm excitation and 538 nm emission using a Biotek Synergy H1 microplate reader (Agilent Technologies, Inc., Santa Clara, CA, USA). […]\n(§7) Results are expressed as the mean ± SD (standard deviation) relative to the respective control (E/E0), where E represents the mean result for the measured sample, and E0 represents the mean result for the control. […]"}, "Caco-2 cells": {"test_system": "Caco-2 cells", "assay": "MTT viability assay, colorectal cancer cells Caco-2", "type": "cell-based, human", "settings": "for SI, Caco-2: CC50 CCD 841 CoTr / CC50 Caco-2; for CC50: Homo sapiens, Caco-2, MTT, 24 h, read-out: CC50 ± SD, Caco-2", "protocol": "as §1, §2, §3, §4"}, "HT-29 cells": {"test_system": "HT-29 cells", "assay": "MTT viability assay, colorectal cancer cells HT-29", "type": "cell-based, human", "settings": "for SI, HT-29: CC50 CCD 841 CoTr / CC50 HT-29; for CC50: Homo sapiens, HT-29, MTT, 24 h, read-out: CC50 ± SD, HT-29", "protocol": "as §1, §2, §3, §4"}, "[3]": {"molecular_target": "T2, P-glycoprotein (HT-29 cells) (Homo sapiens, UniProt P08183)", "T2 construct": "intracellular accumulation of rhodamine 123 (a fluorescent P-gp substrate analog) in P-gp-expressing cell lines (HT-29, LoVo, and LoVo/Dx); endogenous in cells; host or cells: HT-29, LoVo (ECACC via Sigma-Aldrich); LoVo/Dx (doxorubicin-selected subline of LoVo)", "T2 sequence (P08183 whole entry)": "as above", "assay": "Rhodamine-123 accumulation assay in HT-29", "type": "cell-based", "settings": "50 µM, 24 h; versus untreated control", "from_the_text": "as §5, §6, §7"}}, "note": "Marks after values point to notes of the source that are not given here."}
{"smiles": "Cc1ccc(N2CCN(Cn3nc(CNC(=O)c4c(C)cc(C)nc4S)n(-c4ccccc4)c3=S)CC2)cc1", "note": "[Compound 6]", "values": [{"measurement": "SI, LoVo", "setting": "LoVo cells", "value": 2.37}, {"measurement": "CC50", "setting": "LoVo cells; Homo sapiens, LoVo, MTT, 24 h, Non-toxic = no toxicity in tested range 1–500 μM, read-out: CC50 ± SD, LoVo", "value": "163 ± 4.6", "unit": "µM"}, {"measurement": "SI, LoVo/Dx", "setting": "LoVo/Dx cells", "value": 1.99}, {"measurement": "CC50", "setting": "LoVo/Dx cells", "value": "195 ± 5.7", "unit": "µM"}, {"measurement": "CC50 at 24 h", "setting": "[1]", "value": "388 ± 6.5", "unit": "µM"}, {"measurement": "Increase of Rh-123 accumulation, LoVo/Dx", "setting": "[2]", "value": 3.5, "unit": "fold"}, {"measurement": "SI, Caco-2", "setting": "Caco-2 cells", "value": 5.16}, {"measurement": "CC50", "setting": "Caco-2 cells", "value": "75.1 ± 5.1", "unit": "µM"}, {"measurement": "SI, HT-29", "setting": "HT-29 cells", "value": 3.16}, {"measurement": "CC50", "setting": "HT-29 cells", "value": "123 ± 3.9", "unit": "µM"}, {"measurement": "Increase of Rh-123 accumulation, HT-29", "setting": "[3]", "value": 1.46, "unit": "fold"}]}
{"smiles": "Cc1cc(C)c(C(=O)NCc2nn(CN3CCN(c4cccc(Cl)c4)CC3)c(=S)n2-c2ccccc2)c(S)n1", "note": "[Compound 5, 4,6-dimethyl-N-[(4-phenyl-5-thioxo-2-{[4-(3-chlorophenyl)piperazinyl]methyl}-4,5-dihydro-1H-1,2,4-triazol-3-yl)methyl]-2-sulfanylpyridine-3-carboxamide]", "values": [{"measurement": "SI, LoVo", "setting": "LoVo cells", "value": ">>1 ^c"}, {"measurement": "CC50 ± SD, LoVo", "setting": "LoVo cells; MTT, 24 h, Non-toxic = no toxicity in tested range 1–500 μM", "value": "Non-toxic ^b"}, {"measurement": "SI, LoVo/Dx", "setting": "LoVo/Dx cells", "value": 1.20}, {"measurement": "CC50", "setting": "LoVo/Dx cells", "value": "184 ± 2.7", "unit": "µM"}, {"measurement": "CC50 at 24 h", "setting": "[1]", "value": "221 ± 2.4", "unit": "µM"}, {"measurement": "Increase of Rh-123 accumulation, LoVo/Dx", "setting": "[2]", "value": 4.2, "unit": "fold"}, {"measurement": "SI, Caco-2", "setting": "Caco-2 cells", "value": 0.97}, {"measurement": "CC50", "setting": "Caco-2 cells", "value": "228 ± 5.2", "unit": "µM"}, {"measurement": "SI, HT-29", "setting": "HT-29 cells", "value": 2.15}, {"measurement": "CC50", "setting": "HT-29 cells", "value": "102 ± 2.7", "unit": "µM"}, {"measurement": "Increase of Rh-123 accumulation, HT-29", "setting": "[3]", "value": 1.23, "unit": "fold"}]}
